What was measured:
[1] = biological target: T1, IDH2-R140Q mutant enzyme (Homo sapiens, UniProt P48735, R140Q); assay: Inhibitory activity of compounds on IDH2-R140Q enzyme in vitro (diaphorase/resazurin fluorescence); assay type: biochemical; conditions: IDH2-R140Q, pre-incubated 16 h with enzyme and NADPH, reaction 1 h with α-ketoglutarate; read-out: R140Q IC50
T1 construct: purchased BPS 71100-1
T1 sequence (P48735 40-452 R140Q): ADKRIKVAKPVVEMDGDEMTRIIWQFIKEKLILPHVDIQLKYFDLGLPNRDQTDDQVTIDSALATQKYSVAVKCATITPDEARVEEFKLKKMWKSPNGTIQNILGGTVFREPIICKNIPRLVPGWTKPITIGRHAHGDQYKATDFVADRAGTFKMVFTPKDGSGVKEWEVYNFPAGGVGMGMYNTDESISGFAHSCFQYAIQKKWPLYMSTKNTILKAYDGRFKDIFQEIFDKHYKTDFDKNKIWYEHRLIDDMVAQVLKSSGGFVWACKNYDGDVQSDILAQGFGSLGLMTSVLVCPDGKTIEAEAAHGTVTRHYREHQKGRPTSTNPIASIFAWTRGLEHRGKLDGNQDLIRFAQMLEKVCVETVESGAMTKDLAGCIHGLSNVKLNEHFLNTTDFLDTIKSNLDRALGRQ
Protocol: Instrument: SpectraMax M3 Multi-Mode Microplate Reader, purchased from Molecular Devices.
In a 96-well plate, 40 μL of reaction buffer containing 2× enzyme (IDH2-WT or IDH2-R140Q) and cofactor (NADP or NADPH) was added to each well of the compound group and the DMSO control group, and 40 μL of reaction buffer containing 2× cofactor (NADP or NADPH) was added to each well of the enzyme-free control group.
20 μL of reaction buffer containing 4× compound to be tested was added to each well of the compound group. The compound was pre-formulated into 200× mother liquor with 100% DMSO; in the final reaction system, the concentration of DMSO was 0.5%. 20 μL of reaction buffer containing DMSO was added to each well of the DMSO control group; in the final reaction system, the concentration of DMSO was 0.5%.
The compound was mixed well with the enzyme and cofactor, and pre-incubated at room temperature for 16 h;
20 μL of reaction buffer containing 4× reaction substrate was added to each well. After mixed uniformly, the mixture was reacted at room temperature for 1 h.
3× termination and detection solution (it was prepared with reaction buffer, the final concentration of Diaphorase was 0.015 mg/mL, and the final concentration of Resazurin was 0.03 mM) was prepared. 40 μL of 3× termination and detection solution was added to each well of the enzyme reaction system. After mixed uniformly, the mixture was incubated at room temperature for 10 min;
Fluorescence values of two wells were obtained and averaged and the activity rate (Activity %) was calculated. The calculation formula: Activity %=(Measured data−Subtract background)/(DMSO Control−Subtract background)×100, wherein “Measured data” is fluorescence value of the compound in the pre-incubated wells, “Subtract background” is the fluorescence value of the enzyme-free control wells, and “DMSO Control” is the fluorescence value in the DMSO pre-incubated wells. Data was processed by GraphPad Prism v5.0 software and fitted to obtain IC50.

[2] = biological target: T2, U87-MG cell line of overexpressed mutant IDH2 (R140Q) (Homo sapiens, UniProt P48735, R140Q); assay: Cell activity in vitro: 2-HG in culture supernatant of U87-MG (IDH2-R140Q) cells by LC-MS/MS; assay type: cell-based; conditions: U87-MG (IDH2-R140Q) cells, 72 hours, 2-HG in supernatant; read-out: IC50 (2-HG remaining compared to untreated)
T2 construct: expressed in transfected cells
T2 sequence (P48735 40-452 R140Q): T1 sequence (P48735 40-452 R140Q)
Protocol: 1.2 Cells: human glioblastoma cell line U87-MG, purchased from the American Type Culture Collection (ATCC);
Cell recovery: U87-MG (IDH2-R140Q) cells and U87-MG cells were put into a 37° C. water bath, then transferred to 15 mL of pre-warmed medium, centrifuged at 1000 rpm for 5 minutes, and the medium was discarded. The cells were resuspended in 15 mL of fresh medium, transferred to a T75 flask and cultured in a 37° C. incubator with 5% CO2. After 24 hours, the medium was changed to fresh medium.
Cell passage: The above-mentioned recovered cells were transferred to a 50 mL sterile centrifuge tube, centrifuged at 1000 rpm for 5 minutes, and the medium was discarded. The cells were resuspended evenly and counted. The cell density was adjusted appropriately in a 15 mL fresh medium, and then added to T75 culture flask. The culture flask was incubated in an incubator with 5% CO2 at 37° C.
After cells grown to a relatively high density in the culture dish, the cells were trypsinized, resuspended in medium (MEM+10% FBS), and counted. After adjusting the cell concentration, the resuspended cells were seeded in a 96-well plate at 5×10^3 cells per well. After inoculation, the cells were cultured for 24 hours until the cells adhered. The medium were sucked out, and the medium containing gradient concentration of compound was added, 100 μL per well. The cells were further cultured for 72 hours. The s 20 μL of upernatant was taken and put into a 2 mL 96-well sample-processing plate. 480 μL of dilution solution was added and shaken for mixing, and then centrifuged at 4500 rpm for 5 minutes. 200 μL of supernatant was transferred for LC-MS/MS injection analysis.
Column: Shim-pack XR-ODS 30L*2.0; mobile phase: acetonitrile-0.2% ammonia, 5 mM ammonium acetate aqueous solution; column temperature: 30° C.; flow rate: 0.4 mL/min; gradient elution conditions are as follows: […]
Atmospheric […] chemical ionization (APCI) was used. Source parameters was set as follows: IonSpray Voltage/IS-4500V; auxiliary gas 1 (Ion Source Gas 1/GS 1, N2), 55Arb; auxiliary gas 2 (Ion Source Gas 2, N2), 55Arb; auxiliary gas heating temperature (Temperature/TEM), 500° C.; curtain gas/CUR, 25Arb; collision gas/CAD, N2, 8 Pa.
Multi-ion reaction monitoring (MRM) in negative ion mode (Negative) was used. […] The internal standard (IS) MRM parameters: parent ion (Q 1 Mass), 178.0 Da; daughter ion (Q3 Mass), 149.0 Da; Decluster Potential (DP), −51V; collision voltage (Collision Energy/CE), −17 eV
By determining the 2-HG content in the cell culture supernatant of each well using LC-MS/MS, the mutant enzyme activity (2-HG remaining compared to untreated %) was calculated. The calculation formula: 2-HG remaining compared to untreated %=(Measured 2-HG level—U87-MG control 2-HG level)/(Untreated 2-HG level—U87-MG control 2-HG level)×100. […] Data were processed by GraphPad Prism v5.0 software and fitted to obtain IC50.

[3] = system: U87-MG (IDH2-R140Q) subcutaneous xenograft tumor; assay: Subcutaneous xenograft tumor caused by U87-MG (IDH2-R140Q) mutant cells in vivo: intratumor 2-HG; parameters: species or system BALB/c nude mice; conditions: for Intratumor 2-HG(%) after 10 days of administration: intragastric, mean, relative to U87-MG (IDH2-R140Q) control group; for ability of lowering 2-HG level compared with positive compound AG-221: U87-MG (IDH2-R140Q) subcutaneous xenograft model
Source text: 1.2 Animals: BALB/c nude mice, 6-7 weeks old, female, 18-22 g, purchased from Nanjing Jinlaichang Company.
U87-MG (IDH2-R140Q) cells and U87-MG cells (wild type) were expanded, and cells in logarithmic growth phase were used for tumor inoculation in vivo. 16 mice were inoculated subcutaneously into the right lower back of the body at an amount of 2×10^6 cells/mouse (the volume ratio of cell suspension to Matrigel was 1:0.8).
The non-mutation control group was nude mice inoculated with U87-MG cells, and the test compound groups and vehicle control group were nude mice inoculated with U87-MG (IDH2-R140Q) cells.
Each group was intragastrically administered with a corresponding concentration of the compound solution, the administration volume was 100 μL/10 g body weight, and the control group was administered the same volume of blank vehicle.
After 10 days of administration, the mice were sacrificed. The tumors were exfoliated, homogenized, and the 2-HG content in the tumor was examined.
The 2-HG concentration in the homogenate of each animal tumor in each group was determined by LC-MS/MS. The percentage (2-HG %) was calculated; the calculation formula is as follows 2-HG %=(2-HG concentration of administration group tumor−2-HG concentration of U87-MG control group tumor)/(2-HG concentration of U87−MG(IDH2-R140Q) control group tumor−2-HG concentration of U87-MG control group tumor)×100%.

[4] = system: human acute myeloid leukemia AM7577 cells; assay: Human acute myeloid leukemia NOD/SCID animal model: survival; assay type: in vivo, NOD/SCID mice; conditions: gavage once a day for 14 days, 14 days after administration
Source text: 1.1 Compounds to be tested: the compounds of the present disclosure prepared in the above examples, each of which was formulated into a solution in corresponding concentrations by using a vehicle (2% absolute ethanol:10% Solutol™: 88% physiological saline (v/v/v)).
1.2 Cells: human acute myeloid leukemia AM7577 cells, provided by Sino-American Crown Biotechnology (Beijing) Co., Ltd
1.4 Animals: NOD/SCID mice, 3-4 weeks old, female, purchased from Beijing Huakangkang Biotechnology Co., Ltd
Each mouse was inoculated through the tail vein at an amount of 2×10^6 cells resuspended in 100 uL of PBS.
Orbital blood samples of animals were collected weekly, labeled with human CD45, and the percentage of positive cells was detected. The animals were grouped when the percentage of peripheral blood CD45+ cells reached 5%. The proportion of peripheral blood CD45+ cells reached 5% on the 40th day after inoculation. After grouping, drugs were administered by gastric gavageonce once a day for 14 days.
The mortality rate of the animals after administration and the survival period of the surviving animals were observed.

| IC50 [1] [nM] | IC50 [2] [nM] | Compound | Intratumor 2-HG(%) after 10 days of administration ([3]; 25 mg/kg) [%] | Intratumor 2-HG(%) after 10 days of administration ([3]; 12.5 mg/kg) [%] | ability of lowering 2-HG level compared with positive compound AG-221 [3] | Numbers of surviving animals ([4]; 15 mg/kg, 8 animals per group) | Numbers of surviving animals ([4]; 45 mg/kg, AG-221 group 4 animals, Example 22B group 8) | Intratumor 2-HG(%) after 10 days of administration ([3]; 6.25 mg/kg) [%] |
| --- | --- | --- | --- | --- | --- | --- | --- | --- |
| 11 | 15 | FC1(F)CCN(c2nc(Nc3ccnc(C(F)(F)F)c3)nc(-c3cccc(C(F)(F)F)n3)n2)CC1 [Example 1, 4-(4,4-Difluoropiperidin-1-yl)-6-(6-(trifluoromethyl)pyridin-2-yl)-N-(2-(trifluoromethyl)pyridin-4-yl)-1,3,5-triazin-2-amine] | 22 | – | – | – | – | – |
| 23 | 27 | FC1(F)CCCN(c2nc(Nc3ccnc(C(F)(F)F)c3)nc(-c3cccc(C(F)(F)F)n3)n2)C1 [Example 2, 4-(3,3-Difluoropiperidin-1-yl)-6-(6-(trifluoromethyl)pyridin-2-yl)-N-(2-(trifluoromethyl)pyridin-4-yl)-1,3,5-triazin-2-amine] | – | 14 | – | – | – | – |
| 10.1 | 15 | FC(F)(F)c1cc(Nc2nc(-c3cccc(C(F)(F)F)n3)nc(N3CC(F)(F)C(F)(F)C3)n2)ccn1 [Example 55, 4-(3,3,4,4-Tetrafluoropyrrolidin-1-yl)-6-(6-(trifluoromethyl)pyridin-2-yl)-N-(2-(trifluoromethyl)pyridin-4-yl)-1,3,5-triazin-2-amine] | – | – | substantially superior | – | – | 1 |

More lines, now with the values behind:

| Compound | IC50 [1] [nM] | IC50 [2] [nM] | Intratumor 2-HG(%) after 10 days of administration ([3]; 25 mg/kg) [%] | Intratumor 2-HG(%) after 10 days of administration ([3]; 12.5 mg/kg) [%] | ability of lowering 2-HG level compared with positive compound AG-221 [3] | Numbers of surviving animals ([4]; 15 mg/kg, 8 animals per group) | Numbers of surviving animals ([4]; 45 mg/kg, AG-221 group 4 animals, Example 22B group 8) | Intratumor 2-HG(%) after 10 days of administration ([3]; 6.25 mg/kg) [%] |
| --- | --- | --- | --- | --- | --- | --- | --- | --- |
| OC1CCCN(c2nc(Nc3ccnc(C(F)(F)F)c3)nc(-c3cccc(C(F)(F)F)n3)n2)C1 (centres unmarked) [Example 3, 4-(3-Hydroxypiperidin-1-yl)-6-(6-(trifluoromethyl)pyridin-2-yl)-N-(2-(trifluoromethyl)pyridin-4-yl)-1,3,5-triazin-2-amine] | 22 | 24 | – | 22 | – | – | – | – |
| O[C@@]1(C(F)(F)F)CCN(c2nc(Nc3ccnc(C(F)(F)F)c3)nc(-c3cccc(C(F)(F)F)n3)n2)C1 [Example 22B, (S)-4-(3-trifluoromethyl-3-hydroxypyrrolidin-1-yl)-6-(6-(trifluoromethyl)pyridin-2-yl)-N-(2-(trifluoromethyl)pyridin-4-yl)-1,3,5-triazin-2-amine] | – | – | – | – | substantially superior | 7 | 7 | – |
| OC1(C(F)(F)F)CN(c2nc(Nc3ccnc(C(F)(F)F)c3)nc(-c3cccc(C(F)(F)F)n3)n2)C1 [Example 34] | 14.1 | 17.1 | – | 24 | – | – | – | – |
| FC(F)(F)c1cc(Nc2nc(OCC(F)(F)C(F)(F)F)nc(-c3cccc(C(F)(F)F)n3)n2)ccn1 [Example 45, 4-(2,2,3,3,3-pentafluoropropoxy)-6-(6-(trifluoromethyl)pyridin-2-yl)-N-(2-(trifluoromethyl)pyridin-4-yl)-1,3,5-triazin-2-amine] | 6.3 | 10.2 | – | – | substantially superior | – | – | 17 |
| N#C[C@H]1CCN(c2nc(Nc3ccnc(C(F)(F)F)c3)nc(-c3cccc(C(F)(F)F)n3)n2)C1 [Example 51, 4-((S)-3-cyanopyrrolidin-1-yl)-6-(6-(trifluoromethyl)pyridin-2-yl)-N-(2-(trifluoromethyl)pyridin-4-yl)-1,3,5-triazin-2-amine] | 18 | – | – | – | substantially superior | – | – | 38 |

Reference: patent publication US10961222B2, “Chemical compound of isocitrate dehydrogenase inhibitor, and application thereof” (NANJING SANHOME PHARMACEUTICAL CO., LTD., priority 2016, dated 2021)
